Data as given in PMC11550998, “Novel 5-HT7 receptor antagonists modulate intestinal immune responses and reduce severity of colitis” (American Journal of Physiology - Gastrointestinal and Liver …, 2024).

What was measured:
D4 = target: T1, D4 (Homo sapiens, UniProt P21917); assay: PDSP selectivity profiling, D4; assay type: binding
T1 construct: NIMH Psychoactive Drug Screening Program (PDSP), assay service

[1] = Microsomal stability assay, mouse liver microsomes; assay type: in vitro ADME; details: 37°C, NADPH regenerating system, read-out: T1/2 MLM
Method: Test compounds were assessed for microsomal stability by incubating at 37°C in the presence of mouse or human liver microsomes and an NADPH regenerating system as described by Yang et al. ([16]). Microsomal protein content was adjusted to ensure accurate rates of substrate consumption. Analysis was performed by LC-MS/MS analysis.

D1 = target: T2, D1 (Homo sapiens, UniProt P21728); assay: PDSP selectivity profiling, D1; assay type: binding
T2 construct: NIMH Psychoactive Drug Screening Program (PDSP), assay service

[2] = tested on: CD4+CD45RBhigh T cell-induced colitis; assay: CD4+CD45RBhigh T cell-induced chronic colitis model; assay type: in vivo, Rag1-/- mice
Excerpt: C57BL/6 (Taconic, Cambridge City, IN) for the DSS model of colitis, as well as C57BL/6 and Rag1^−/− mice (Jackson Laboratory, Bar Harbor, ME) for the T-cell transfer model, were kept in sterilized, filter-topped cages under specific pathogen-free conditions upon arrival and fed autoclaved food. Male mice aged 8–10 wk were used for all experiments. Mice were acclimatized for 7 days before the start of any experiments. All experiments were approved by the animal ethics committee of McMaster University and conducted under Canadian guidelines for animal research.
Colitis was induced in Rag1^−/− mice by adoptive transfer of fluorescence-activated cell sorting (FACS)-sorted CD4^+CD45RB^high T cells, as described previously ([18]). Briefly, CD4^+ T cells were isolated from splenocytes of healthy C57BL/6 mice by the EasySep Mouse Naive CD4^+ T Cell Isolation Kit (StemCell Technology, Vancouver, Canada). Naive CD4^+ T cells were then labeled with PE-cy7-conjugated anti-mouse CD3 (BioLegend, San Diego, CA), allophycocyanin (APC)-conjugated anti-mouse CD4 (BD Biosciences), and fluorescein isothiocyanate (FITC)-conjugated anti-mouse CD45RB (BD Biosciences, Mississauga, Canada). CD4^+CD45RB^high T cells were sorted using a FACS Aria II flow cytometer (BD Biosciences, Mississauga, Canada). Cell viability was assessed using a Trypan blue assay before injection. Recipients were administered ∼5 × 10^5 sorted T cells via intraperitoneal injection.
For acute DSS-induced colitis, C576BL/6 mice were treated with MC-170073 (10 mg/kg of body wt) or vehicle (10% DMSO in normal saline) via intraperitoneal injection once daily for 6 days, starting 1 day before the beginning of DSS. In a separate experiment, C57BL/6 mice were orally administered with MC-230078 (10 mg/kg) or vehicle twice daily for 5 days, starting from the beginning of DSS. For chronic DSS-induced colitis, C57BL/6 mice were treated with MC-170073 (10 mg/kg ip) or vehicle once daily for 6 days, starting 1 day before the beginning of the third cycle. Last, for CD4^+CD45RB^high T cell-induced chronic colitis, reconstituted Rag1^−/− mice were orally administered MC-230078 (5 mg/kg or 10 mg/kg) or a vehicle twice daily for 10 days starting from week 6 post-reconstitution of T cells.
Disease activity index (DAI) is a combined score of weight loss, stool consistency, and fecal bleeding and was blindly assessed using a previously published scoring system ([19]). This scoring system was defined as follows: weight loss: 0 = no loss; 1 = 1–5%; 2 = 5–10%; 3 = 10–20%; 4 = 20%+; stool, 0 = normal; 2 = loose stool; 4 = diarrhea; and bleeding: 0 = no blood; 2 = hemoccult positive (Hemoccult II; Beckman Coulter, Fullerton, CA); and 4 = gross blood (blood around anus). DAI was measured across all days of DSS treatment. Macroscopic damage scores were blindly scored using a previously published scoring system for DSS-induced colitis ([19]).
Colonic myeloperoxidase (MPO) levels were measured following a published protocol ([19]). Briefly, colonic tissue samples were homogenized in ice-cold 50 mmol·L^−1 potassium phosphate buffer containing 0.5% hexadecyl trimethyl ammonium bromide (pH = 6.0) (Sigma). Homogenates were centrifuged, the supernatant was removed, and an aliquot was then added to a solution containing potassium phosphate buffer, O-dianisidine, and hydrogen peroxide (Sigma-Aldrich). The absorbance was measured at 450 nm by a spectrophotometer (model EL808, BioTek). MPO level was expressed in units per milligram of tissue, where 1 U is defined as the quantity of enzyme able to convert 1 μmol hydrogen peroxide to water per minute at room temperature.
Segments of the proximal colon were washed with PBS, fixed in 10% neutral-buffered formalin, washed with ethanol, and embedded in paraffin. […]

[3] = 10 mg/kg orally twice daily 10 days, vs vehicle

T2 sequence (P21728 whole entry): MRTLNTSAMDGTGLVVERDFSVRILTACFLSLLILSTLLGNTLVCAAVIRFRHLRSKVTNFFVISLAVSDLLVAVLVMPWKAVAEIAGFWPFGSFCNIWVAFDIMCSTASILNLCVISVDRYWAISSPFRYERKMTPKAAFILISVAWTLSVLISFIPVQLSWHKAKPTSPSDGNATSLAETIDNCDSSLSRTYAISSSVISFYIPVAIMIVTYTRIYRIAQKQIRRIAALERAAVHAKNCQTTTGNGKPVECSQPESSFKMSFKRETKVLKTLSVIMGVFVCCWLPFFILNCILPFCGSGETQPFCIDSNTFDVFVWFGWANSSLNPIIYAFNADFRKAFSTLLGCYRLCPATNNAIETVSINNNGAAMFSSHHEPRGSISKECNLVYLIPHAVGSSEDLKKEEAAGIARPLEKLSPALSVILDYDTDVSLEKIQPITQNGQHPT
T1 sequence (P21917 whole entry): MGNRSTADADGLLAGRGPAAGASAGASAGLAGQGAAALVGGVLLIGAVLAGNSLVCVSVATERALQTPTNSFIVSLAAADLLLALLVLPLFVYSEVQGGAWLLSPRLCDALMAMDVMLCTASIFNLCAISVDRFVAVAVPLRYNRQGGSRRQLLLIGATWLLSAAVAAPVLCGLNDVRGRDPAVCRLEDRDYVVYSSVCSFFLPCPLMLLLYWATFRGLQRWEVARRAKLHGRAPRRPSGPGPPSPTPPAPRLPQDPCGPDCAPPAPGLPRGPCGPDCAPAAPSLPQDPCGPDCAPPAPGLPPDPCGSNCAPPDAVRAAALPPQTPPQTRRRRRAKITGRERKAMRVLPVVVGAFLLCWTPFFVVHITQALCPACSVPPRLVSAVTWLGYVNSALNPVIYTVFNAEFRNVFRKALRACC

Row | Structure (SMILES) | Ki (D4) [nM] | half-life [1] [min] | Ki (D1) [nM] | DAI ([2]; 10 mg/kg orally twice daily 10 days from week 6, from day 4 of dosing, vs vehicle) | colonic IFN-γ [2, 3] | colonic IL-1β [2, 3] | colonic IL-6 [2, 3] | colonic MPO levels [2, 3] | colonic TNF-α [2, 3] | macroscopic damage [2, 3] | body weight change ([2]; between the two drug-treated groups (5 and 10 mg/kg)) | histological damage scores ([2]; higher dosage (10 mg/kg) orally twice daily 10 days) | colonic 5-HT levels ([2]; treated vs vehicle-treated mice)
1 | CCC1(CC)CC(CCN2CCN(c3ccc(O)cc3)CC2)OC1=O (stereo not shown) [MC-170073] | 591 | 17 | 301 |  |  |  |  |  |  |  |  |  | 
2 | CCC1(CC)C[C@@H](CCN2CCN(c3ccc(O)cc3)CC2)OC1=O [MC-230078] |  |  |  | significant reduction | significant downregulation | significant downregulation | significant downregulation | significant decrease | significant downregulation | reduced | no difference | significantly lower | no differences
